Data taken from EP4737454A1, “GLP-1 RECEPTOR AGONIST, AND PREPARATION METHOD THEREFOR AND USE THEREOF” (Wayne Biotechnology Co., Ltd., priority 2023, dated 2025).

Molecular target: Human GLP-1R (Homo sapiens, UniProt P43220)
Test: cAMP level determination in human GLP-1R stably transfected HEK293T cells (HTRF cAMP kit)
Format: cell-based
Details: 37°C 30 min
Description: Human GLP-1R HEK293T stably transfected cells were digested with trypsin, terminated with DMEM total (without p/s), centrifuged and washed twice with 1X Stimulation buffer, then resuspended in 1X stimulation buffer and counted. The cells were then prepared as a 1 Million/mL cell suspension in stimulation buffer. Compound powder was first prepared as a 10 mM stock solution in DMSO, then diluted to 2 mM with DMSO, and further prepared as 2X compound in 1X stimulation buffer (Cisbio kit buffer with freshly added IBMX at a final concentration of 0.5 mM). The top dose final concentration was 2000 nM, with a final DMSO concentration of 0.2%, diluted in a 1:3 gradient for 11 gradients.
According to the layout, 5 µl of compound was added to each well; Min wells contained 100 nM GLP-1, and Max wells contained 0.2% DMSO in 1X stimulation buffer. 5 µl of cell suspension was added to each well, centrifuged at 300 rpm at room temperature for 1 min, then incubated at 37°C for 30 min. 2X cAMP standards were prepared in 1X Stimulation buffer, with a top final concentration of 2.8 µM, diluted in a 1:3 gradient for 12 doses. According to the layout, 10 µl was added to each well. Finally, d2 and antibody were diluted 20-fold in 1X Detection buffer (Cisbio kit buffer), and 5 µl of each was added to each well according to the layout. After centrifugation at 300 rpm at room temperature for 1 min, the plate was incubated at room temperature for 2 hr.
Stimulation% was calculated based on Min and Max readings (665nm/615nm ratio) using the formula: 100*(ratio Max well - ratio test well)/(ratio Max well - ratio Min well). The cAMP concentration in each test well was derived from the cAMP standard curve, and the data was analyzed using GraphPad Prism 9 to plot four-parameter fit curves and calculate EC50 values using the formula: Y=Bottom + (Top-Bottom)/(1+10^((LogEC50-X)*HillSlope)). Table 1: cAMP Level Determination in Human GLP-1R Stably Transfected HEK293T Cells

Sequence of Human GLP-1R (P43220 24-463): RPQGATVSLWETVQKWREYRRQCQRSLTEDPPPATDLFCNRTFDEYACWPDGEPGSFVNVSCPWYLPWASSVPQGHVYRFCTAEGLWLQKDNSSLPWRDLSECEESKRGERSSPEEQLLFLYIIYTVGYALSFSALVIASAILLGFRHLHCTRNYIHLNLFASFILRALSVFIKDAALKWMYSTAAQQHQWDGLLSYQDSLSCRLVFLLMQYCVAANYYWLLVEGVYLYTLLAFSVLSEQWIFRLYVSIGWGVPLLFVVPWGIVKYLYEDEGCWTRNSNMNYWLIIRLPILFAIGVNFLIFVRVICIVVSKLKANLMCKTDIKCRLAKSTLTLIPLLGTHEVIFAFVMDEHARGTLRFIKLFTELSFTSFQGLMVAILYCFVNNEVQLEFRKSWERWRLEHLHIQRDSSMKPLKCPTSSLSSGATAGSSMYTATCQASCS

Q: With `Cc1cc(-n2nc3c(c2-n2ccn(-c4ccc(C(=O)N(C)C5(C#N)CC5)c(F)c4)c2=O)[C@H](C)N(C(=O)c2cc4cc(C5CCOC(C)(C)C5)ccc4n2[C@@]2(c4nc(=O)o[nH]4)C[C@@H]2C)CC3)cc(C)c1F` (stereo partly shown) [Compound 23] as the compound, how does the EC50 read?
A: 13.8 nM

Q: Which EC50 does the source give for `Cc1cc(-n2nc3c(c2-n2ccn(-c4ccc(N(C)C5CC5)c(Cl)c4)c2=O)[C@H](C)N(C(=O)c2cc4cc([C@@H]5CCOC(C)(C)C5)ccc4n2[C@@]2(c4noc(=O)[nH]4)C[C@@H]2C)CC3)cc(C)c1F` [Compound 67a] here?
A: 51.4 nM

Q: With `Cc1cc(-n2nc3c(c2-n2ccn(-c4ccc(N(C)C(=O)C5CC5)c(Cl)c4)c2=O)[C@H](C)N(C(=O)c2cc4cc([C@H]5CCOC(C)(C)C5)ccc4n2[C@@]2(c4noc(=O)[nH]4)C[C@@H]2C)CC3)cc(C)c1F` [Compound 70] as the compound, how does the EC50 read?
A: 3.55 nM

Q: With `Cc1cc(-n2nc3c(c2-n2ccn(-c4ccc(N(C)C(=O)C5CC5)cc4Cl)c2=O)[C@H](C)N(C(=O)c2cc4cc([C@H]5CCOC(C)(C)C5)ccc4n2[C@@]2(c4nc(=O)o[nH]4)C[C@@H]2C)CC3)cc(C)c1F` [Compound 77] as the compound, how does the EC50 read?
A: 6.19 nM

Q: How did the EC50 turn out when `Cc1cc(-n2nc3c(c2-n2ccn(-c4ccc(C(=O)N(C)C5CC5)nn4)c2=O)[C@H](C)N(C(=O)c2cc4cc(C5CCOC(C)(C)C5)ccc4n2[C@@]2(c4nc(=O)o[nH]4)C[C@@H]2C)CC3)cc(C)c1F` (stereo partly shown) [Compound 30] was run?
A: 206 nM

Q: Which EC50 does the source give for `Cc1cc(-n2nc3c(c2-n2ccn(-c4ccc5c(c4)C=CS5(=O)=O)c2=O)[C@H](C)N(C(=O)c2cc4cc([C@@H]5CCOC(C)(C)C5)ccc4n2[C@@]2(c4noc(=O)[nH]4)C[C@@H]2C)CC3)cc(C)c1F` [Compound 62a] here?
A: 223 nM

Q: How did the EC50 turn out when `Cc1cc(-n2ccn(-c3c4c(nn3-c3cc(C)c(F)c(C)c3)CCN(C(=O)c3cc5cc([C@H]6CCOC(C)(C)C6)ccc5n3[C@@]3(c5nc(=O)o[nH]5)C[C@@H]3C)[C@H]4C)c2=O)ccc1C(=O)N(C)C1CC1` [Compound 50] was run?
A: 11.6 nM

Q: How did the EC50 turn out when `Cc1cc(-n2nc3c(c2-n2ccn(-c4ccc(C(=O)N(C)C5CC5)c(C#N)c4)c2=O)[C@H](C)N(C(=O)c2cc4cc([C@H]5CCOC(C)(C)C5)ccc4n2[C@@]2(c4nc(=O)o[nH]4)C[C@@H]2C)CC3)cc(C)c1F` [Compound 9] was run?
A: 4.85 nM

Q: How did the EC50 turn out when `Cc1cc(-n2nc3c(c2-n2ccn(-c4ccc(C(=O)NC5CC5)cc4)c2=O)[C@H](C)N(C(=O)c2cc4cc(C5CCOC(C)(C)C5)ccc4n2[C@@]2(c4nc(=O)o[nH]4)C[C@@H]2C)CC3)cc(C)c1F` (stereo partly shown) [Compound 46] was run?
A: 77.9 nM

Q: How did the EC50 turn out when `Cc1cc(-n2nc3c(c2-n2ccn(-c4ccc(C(=O)N(C)C5CCC5)cc4)c2=O)[C@H](C)N(C(=O)c2cc4cc(C5CCOC(C)(C)C5)ccc4n2[C@@]2(c4nc(=O)o[nH]4)C[C@@H]2C)CC3)cc(C)c1F` (stereo partly shown) [Compound 21] was run?
A: 14.4 nM

Q: How did the EC50 turn out when `Cc1cc(-n2nc3c(c2-n2ccn(-c4ccc(C#N)c(OC(F)(F)F)c4)c2=O)[C@H](C)N(C(=O)c2cc4cc(C5CCOC(C)(C)C5)ccc4n2[C@@]2(c4nc(=O)o[nH]4)C[C@@H]2C)CC3)cc(C)c1F` (stereo partly shown) [Compound 78] was run?
A: 20.3 nM

Q: For `Cc1cc(-n2nc3c(c2-n2ccn(-c4cc5c(cc4F)S(=O)(=O)CC5)c2=O)[C@H](C)N(C(=O)c2cc4cc(C5CCOC(C)(C)C5)ccc4n2[C@@]2(c4nc(=O)o[nH]4)C[C@@H]2C)CC3)cc(C)c1F` (stereo partly shown) [Compound 61], which EC50 is on record?
A: 10.8 nM

Q: For `Cc1cc(-n2nc3c(c2-n2ccn(-c4ccc(C#N)c(F)c4)c2=O)[C@H](C)N(C(=O)c2cc4cc([C@@H]5CCOC(C)(C)C5)ccc4n2[C@@]2(c4nc(=O)o[nH]4)C[C@@H]2C)CC3)cc(C)c1F` [Compound 82a], which EC50 is on record?
A: 459 nM

Q: With `Cc1cc(-n2ccn(-c3c4c(nn3-c3cc(C)c(F)c(C)c3)CCN(C(=O)c3cc5cc(C6CCOC(C)(C)C6)ccc5n3[C@@]3(c5nc(=O)o[nH]5)C[C@@H]3C)[C@H]4C)c2=O)ccc1C#N` (stereo partly shown) [Compound 87] as the compound, how does the EC50 read?
A: 17.6 nM

Q: How did the EC50 turn out when `Cc1cc(-n2nc3c(c2-n2ccn(-c4ccccc4C#N)c2=O)[C@H](C)N(C(=O)c2cc4cc(C5CCOC(C)(C)C5)ccc4n2[C@@]2(c4nc(=O)o[nH]4)C[C@@H]2C)CC3)cc(C)c1F` (stereo partly shown) [Compound 89] was run?
A: 201 nM

Q: For `Cc1cc(-n2nc3c(c2-n2ccn(-c4ccc(C#N)c(OC(F)F)c4)c2=O)[C@H](C)N(C(=O)c2cc4cc(C5CCOC(C)(C)C5)ccc4n2[C@@]2(c4nc(=O)o[nH]4)C[C@@H]2C)CC3)cc(C)c1F` (stereo partly shown) [Compound 95], which EC50 is on record?
A: 17.6 nM

Q: For `Cc1cc(-n2nc3c(c2-n2ccn(-c4ccc(C#N)cn4)c2=O)[C@H](C)N(C(=O)c2cc4cc(C5CCOC(C)(C)C5)ccc4n2[C@@]2(c4nc(=O)o[nH]4)C[C@@H]2C)CC3)cc(C)c1F` (stereo partly shown) [Compound 85], which EC50 is on record?
A: 50.2 nM

Q: With `Cc1cc(-n2nc3c(c2-n2ccn(-c4ccc(C(=O)N(C)C5CC5)c(C)c4F)c2=O)[C@H](C)N(C(=O)c2cc4cc([C@H]5CCOC(C)(C)C5)ccc4n2[C@@]2(c4nc(=O)o[nH]4)C[C@@H]2C)CC3)cc(C)c1F` [Compound 17] as the compound, how does the EC50 read?
A: 8.97 nM

Q: Which EC50 does the source give for `C[C@H]1c2c(nn(-c3ccc(F)c(OC(F)(F)F)c3)c2-n2ccn(-c3ccc4c(cnn4C)c3F)c2=O)CCN1C(=O)c1cc2cc(C3CCOC(C)(C)C3)ccc2n1[C@@]1(c2nc(=O)o[nH]2)C[C@@H]1C` (stereo partly shown) [Compound 4] here?
A: 34.3 nM

Q: Which EC50 does the source give for `Cc1cc(-n2nc3c(c2-n2ccn(-c4cnc(C(=O)N(C)C5CC5)nc4)c2=O)[C@H](C)N(C(=O)c2cc4cc(C5CCOC(C)(C)C5)ccc4n2[C@@]2(c4nc(=O)o[nH]4)C[C@@H]2C)CC3)cc(C)c1F` (stereo partly shown) [Compound 32] here?
A: 79.7 nM

Q: For `Cc1cc(-n2nc3c(c2-n2ccn(-c4ccc(C(=O)N5CCCC5)cc4)c2=O)[C@H](C)N(C(=O)c2cc4cc(C5CCOC(C)(C)C5)ccc4n2[C@@]2(c4nc(=O)o[nH]4)C[C@@H]2C)CC3)cc(C)c1F` (stereo partly shown) [Compound 22], which EC50 is on record?
A: 50.7 nM

Q: Which EC50 does the source give for `Cc1cc(-n2nc3c(c2-n2ccn(-c4ccc(C(=O)N(C)C5CC5)cn4)c2=O)[C@H](C)N(C(=O)c2cc4cc(C5CCOC(C)(C)C5)ccc4n2[C@@]2(c4nc(=O)o[nH]4)C[C@@H]2C)CC3)cc(C)c1F` (stereo partly shown) [Compound 29] here?
A: 102 nM

Q: Which EC50 does the source give for `Cc1cc(-n2nc3c(c2-n2ccn(-c4ccc(C(=O)N(C)C5CC5)cc4)c2=O)[C@H](C)N(C(=O)c2cc4cc([C@H]5CCOC(C)(C)C5)ccc4n2[C@@]2(c4nc(=O)o[nH]4)C[C@@H]2C)CC3)cc(C)c1F` [Compound 10] here?
A: 8.55 nM

Q: `Cc1cc(-n2nc3c(c2-n2ccn(-c4cccc(C#N)c4)c2=O)[C@H](C)N(C(=O)c2cc4cc(C5CCOC(C)(C)C5)ccc4n2[C@@]2(c4nc(=O)o[nH]4)C[C@@H]2C)CC3)cc(C)c1F` (stereo partly shown) [Compound 80] was tested. Which EC50 did it give?
A: 11.5 nM

Q: With `Cc1cc(-n2nc3c(c2-n2ccn(-c4ccc(C(=O)N(C)C5CC5)c(OCC5CC5)c4)c2=O)[C@H](C)N(C(=O)c2cc4cc(C5CCOC(C)(C)C5)ccc4n2[C@@]2(c4nc(=O)o[nH]4)C[C@@H]2C)CC3)cc(C)c1F` (stereo partly shown) [Compound 43] as the compound, how does the EC50 read?
A: 13.2 nM

Q: With `Cc1cc(-n2nc3c(c2-n2ccn(-c4ccc5c(c4)C=CS5(=O)=O)c2=O)[C@H](C)N(C(=O)c2cc4cc(C5CCOC(C)(C)C5)ccc4n2[C@@]2(c4noc(=O)[nH]4)C[C@@H]2C)CC3)cc(C)c1F` (stereo partly shown) [Compound 62] as the compound, how does the EC50 read?
A: 13.5 nM

Q: `Cc1cc(-n2nc3c(c2-n2ccn(-c4ccc(C(=O)N(C)C5CC5)c(OC(F)F)c4)c2=O)[C@H](C)N(C(=O)c2cc4cc(C5CCOC(C)(C)C5)ccc4n2[C@@]2(c4nc(=O)o[nH]4)C[C@@H]2C)CC3)cc(C)c1F` (stereo partly shown) [Compound 31] was tested. Which EC50 did it give?
A: 15.1 nM

Q: How did the EC50 turn out when `Cc1cc(-n2nc3c(c2-n2ccn(-c4ccc(N(C)C5CC5)c(Cl)c4)c2=O)[C@H](C)N(C(=O)c2cc4cc([C@H]5CCOC(C)(C)C5)ccc4n2[C@@]2(c4noc(=O)[nH]4)C[C@@H]2C)CC3)cc(C)c1F` [Compound 67b] was run?
A: 11.2 nM

Q: Which EC50 does the source give for `Cc1cc(-n2nc3c(c2-n2ccn(-c4ccc(C(=O)N(C)C5(C)CC5)c(F)c4)c2=O)[C@H](C)N(C(=O)c2cc4cc(C5CCOC(C)(C)C5)ccc4n2[C@@]2(c4nc(=O)o[nH]4)C[C@@H]2C)CC3)cc(C)c1F` (stereo partly shown) [Compound 51] here?
A: 8.76 nM

Q: How did the EC50 turn out when `Cc1cc(-n2nc3c(c2-n2ccn(-c4ccc5c(c4)CCS5(=O)=O)c2=O)[C@H](C)N(C(=O)c2cc4cc([C@H]5CCOC(C)(C)C5)ccc4n2[C@@]2(c4nc(=O)o[nH]4)C[C@@H]2C)CC3)cc(C)c1F` [Compound 56b] was run?
A: 5.59 nM

Q: Which EC50 does the source give for `Cc1cc(-n2nc3c(c2-n2ccn(-c4ccc(C(=O)N(C)C5CC5)c(C(F)(F)F)c4F)c2=O)[C@H](C)N(C(=O)c2cc4cc([C@H]5CCOC(C)(C)C5)ccc4n2[C@@]2(c4nc(=O)o[nH]4)C[C@@H]2C)CC3)cc(C)c1F` [Compound 14] here?
A: 5.61 nM

Q: `Cc1cc(-n2nc3c(c2-n2ccn(-c4cc(F)c(C(=O)N(C)C5CC5)c(F)c4)c2=O)[C@H](C)N(C(=O)c2cc4cc(C5CCOC(C)(C)C5)ccc4n2[C@@]2(c4nc(=O)o[nH]4)C[C@@H]2C)CC3)cc(C)c1F` (stereo partly shown) [Compound 52] was tested. Which EC50 did it give?
A: 11 nM

Q: Which EC50 does the source give for `Cc1cc(-n2nc3c(c2-n2ccn(-c4cc(F)c(C(=O)N(C)C5CC5)cc4F)c2=O)C(C)N(C(=O)c2cc4cc(C5CCOC(C)(C)C5)ccc4n2C2(c4nc(=O)o[nH]4)CC2C)CC3)cc(C)c1F` (stereo not shown) [Compound 26] here?
A: 11.5 nM

Q: For `Cc1cc(-n2nc3c(c2-n2ccn(-c4ccc5c(c4)CCCS5(=O)=O)c2=O)[C@H](C)N(C(=O)c2cc4cc(C5CCOC(C)(C)C5)ccc4n2[C@@]2(c4nc(=O)o[nH]4)C[C@@H]2C)CC3)cc(C)c1F` (stereo partly shown) [Compound 58], which EC50 is on record?
A: 9.93 nM
